Data on six molecules can be found in US20240226115A1, “AXL INHIBITOR COMPOUNDS” (ARCUS BIOSCIENCES, INC., priority 2021, published 2024).

Where only a bound is given, the exact number is not on record here.

In one test the target is T1, recombinant human TYRO3 (Homo sapiens, UniProt Q06418).
T1 construct: purchased Invitrogen
T1 sequence (Q06418 41-890): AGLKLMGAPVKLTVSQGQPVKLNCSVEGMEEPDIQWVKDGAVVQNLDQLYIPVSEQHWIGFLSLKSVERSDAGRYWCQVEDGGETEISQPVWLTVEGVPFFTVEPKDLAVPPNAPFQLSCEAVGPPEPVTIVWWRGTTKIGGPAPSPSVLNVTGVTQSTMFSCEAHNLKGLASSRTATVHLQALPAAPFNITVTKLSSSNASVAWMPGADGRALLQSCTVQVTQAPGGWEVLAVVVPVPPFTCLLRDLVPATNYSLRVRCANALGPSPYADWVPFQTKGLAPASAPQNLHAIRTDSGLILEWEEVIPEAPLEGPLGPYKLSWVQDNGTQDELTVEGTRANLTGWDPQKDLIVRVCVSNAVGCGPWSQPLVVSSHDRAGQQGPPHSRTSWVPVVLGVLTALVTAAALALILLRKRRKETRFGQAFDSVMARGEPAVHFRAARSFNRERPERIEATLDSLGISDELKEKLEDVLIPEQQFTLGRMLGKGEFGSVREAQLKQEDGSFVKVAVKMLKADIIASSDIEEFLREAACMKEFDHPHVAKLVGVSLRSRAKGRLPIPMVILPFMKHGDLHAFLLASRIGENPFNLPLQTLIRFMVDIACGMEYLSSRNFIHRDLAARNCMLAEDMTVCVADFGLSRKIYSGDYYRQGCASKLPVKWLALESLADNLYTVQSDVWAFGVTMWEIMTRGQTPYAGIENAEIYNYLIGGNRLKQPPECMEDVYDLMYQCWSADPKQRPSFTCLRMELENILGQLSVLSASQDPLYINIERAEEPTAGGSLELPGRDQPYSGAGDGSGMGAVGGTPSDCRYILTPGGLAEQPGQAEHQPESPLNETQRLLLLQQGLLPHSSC
The experiment in a line: HTRF KinEASE-TK biochemical potency, TYRO3. The conditions noted are these: 1 nM TYRO3, 700 μM ATP. In short, it runs like this:
(§1)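 Enzyme preincubated with compound 1 h at RT; final 5 nM AXL or 1 nM TYRO3/MER, 800 nM TK substrate-biotin, 700 μM ATP, HEPES pH 7.4, MgCl2, 1% DMSO, 2 h at RT. HTRF 665/620 ratio read after streptavidin-XL665/cryptate antibody detection; percent activity relative to DMSO and pre-stopped controls.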

A further test addresses T2, recombinant human MER (Homo sapiens, UniProt Q12866).
T2 construct: purchased Invitrogen
T2 sequence (Q12866 21-999): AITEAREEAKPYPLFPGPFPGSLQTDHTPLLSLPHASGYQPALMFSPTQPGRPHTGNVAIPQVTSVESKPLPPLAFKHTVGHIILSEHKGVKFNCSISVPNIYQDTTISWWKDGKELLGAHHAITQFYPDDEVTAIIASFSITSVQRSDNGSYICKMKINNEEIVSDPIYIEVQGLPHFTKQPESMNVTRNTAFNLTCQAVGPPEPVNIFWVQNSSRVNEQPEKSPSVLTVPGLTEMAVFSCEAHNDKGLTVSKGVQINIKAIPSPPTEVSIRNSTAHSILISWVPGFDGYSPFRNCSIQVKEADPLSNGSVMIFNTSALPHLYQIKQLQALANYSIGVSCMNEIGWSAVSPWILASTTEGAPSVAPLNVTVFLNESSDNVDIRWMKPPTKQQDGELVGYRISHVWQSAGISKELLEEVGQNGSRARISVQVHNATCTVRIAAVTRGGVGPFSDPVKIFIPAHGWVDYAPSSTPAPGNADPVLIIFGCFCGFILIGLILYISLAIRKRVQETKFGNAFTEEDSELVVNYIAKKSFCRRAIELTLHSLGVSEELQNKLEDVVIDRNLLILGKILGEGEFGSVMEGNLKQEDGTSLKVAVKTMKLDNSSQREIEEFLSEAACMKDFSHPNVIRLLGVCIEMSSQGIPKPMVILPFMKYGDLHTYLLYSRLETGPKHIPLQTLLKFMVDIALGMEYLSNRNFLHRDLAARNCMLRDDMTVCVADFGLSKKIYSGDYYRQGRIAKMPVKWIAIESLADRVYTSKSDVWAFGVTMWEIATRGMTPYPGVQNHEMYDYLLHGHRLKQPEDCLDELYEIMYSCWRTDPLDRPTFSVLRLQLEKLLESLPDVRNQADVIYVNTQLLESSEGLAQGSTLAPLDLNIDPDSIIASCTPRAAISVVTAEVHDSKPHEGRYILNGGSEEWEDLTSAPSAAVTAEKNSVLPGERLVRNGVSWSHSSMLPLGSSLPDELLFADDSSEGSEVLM
The experiment in a line: HTRF KinEASE-TK biochemical potency, MER. Conditions: 1 nM MER, 700 μM ATP. In short, it runs like this:
as §1

`C[C@@H]1CCCN1C1CCc2ccc(-c3cnc4[nH]nc(-c5cc6c(cc5F)C(=O)NCCO6)c4c3)cc2CC1` (stereo partly drawn) [Example 61, 7-Fluoro-8-(5-{7-[(2R)-2-methylpyrrolidin-1-yl]-6,7,8,9-tetrahydro-5H-benzo[7]annulen-2-yl}-1H-pyrazolo[3,4-b]pyridin-3-yl)-2,3,4,5-tetrahydro-1,4-benzoxazepin-5-one]: the IC50 at recombinant human TYRO3 was less than 100 nM; at recombinant human MER, 100 to 1000 nM.
As to `C[C@@H]1CCCN1C1CCc2ccc(-c3cnc4[nH]nc(-c5ccc6c(c5)O[C@@H](C)CNC6=O)c4c3)cc2CC1` (stereo partly drawn) [Example 62, (2S)-2-Methyl-8-(5-{7-[(2R)-2-methylpyrrolidin-1-yl]-6,7,8,9-tetrahydro-5H-benzo[7]annulen-2-yl}-1H-pyrazolo[3,4-b]pyridin-3-yl)-2,3,4,5-tetrahydro-1,4-benzoxazepin-5-one], the concentration for half-maximal inhibition (IC50) on recombinant human TYRO3 and at recombinant human MER was less than 100 nM in each case.
For the molecule `O=C1NCCOc2cc(-c3n[nH]c4ncc(-c5ccc6c(n5)CCC(N5CCCC5)CC6)cc34)ccc21` (stereo not drawn) [Example 63, 8-{5-[7-(Pyrrolidin-1-yl)-5H,6H,7H,8H,9H-cyclohepta[b]pyridin-2-yl]-1H-pyrazolo[3,4-b]pyridin-3-yl}-2,3,4,5-tetrahydro-1,4-benzoxazepin-5-one], the values for the IC50 at recombinant human TYRO3 and at recombinant human MER were less than 100 nM and 100 to 1000 nM, respectively.
On the same counts, the results for `Cc1cc2c(cc1-c1cnc3[nH]nc(-c4ccc5c(c4)OCCNC5=O)c3c1)CCC(N1CCC[C@H]1C)CC2` (stereo partly drawn) [Example 64, 8-(5-{3-Methyl-7-[(2R)-2-methylpyrrolidin-1-yl]-6,7,8,9-tetrahydro-5H-benzo[7]annulen-2-yl}-1H-pyrazolo[3,4-b]pyridin-3-yl)-2,3,4,5-tetrahydro-1,4-benzoxazepin-5-one] are less than 100 nM and less than 100 nM.
For the molecule `C[C@@H]1CCCN1C1CCc2cc(-c3cnc4[nH]nc(-c5ccc6c(c5)OCCNC6=O)c4c3)cc(Cl)c2CC1` (stereo partly drawn) [Example 65, 8-(5-{4-Chloro-7-[(2R)-2-methylpyrrolidin-1-yl]-6,7,8,9-tetrahydro-5H-benzo[7]annulen-2-yl}-1H-pyrazolo[3,4-b]pyridin-3-yl)-2,3,4,5-tetrahydro-1,4-benzoxazepin-5-one], the concentration for half-maximal inhibition (IC50) on recombinant human TYRO3 and at recombinant human MER was less than 100 nM throughout.
With `C[C@@H]1CCCN1C1CCc2ccc(-c3cnc4[nH]nc(-c5ccc6c(c5)OCCNS6(=O)=O)c4c3)cc2CC1` (stereo partly drawn) [Example 66, 7-(5-{7-[(2R)-2-Methylpyrrolidin-1-yl]-6,7,8,9-tetrahydro-5H-benzo[7]annulen-2-yl}-1H-pyrazolo[3,4-b]pyridin-3-yl)-3,4-dihydro-2H-5,12,2-benzoxathiazepine-1,1-dione], the IC50 at recombinant human TYRO3 and on recombinant human MER was 100 to 1000 nM each time.
